Reference: publication PMC5218480 (PLoS ONE, 2017)

Tested on: MV-4-11 cells
Assay: Gene expression microarray analysis (Affymetrix PrimeView) and GSEA
Format: cell-based, human
Design: RFU PODN (11730768_x_at) / Fold change /veh PODN (11730768_x_at) / RFU LINC00158 (11744669_a_at) / Fold change /veh LINC00158 (11744669_a_at) / RFU DUSP10 (11751237_a_at) / Fold change /veh DUSP10 (11751237_a_at) / RFU ID3 (11757404_x_at) / Fold change /veh ID3 (11757404_x_at) / RFU PLEKHG5 (11737974_s_at) / Fold change /veh PLEKHG5 (11737974_s_at) / RFU LRRC4B (11730491_at) / Fold change /veh LRRC4B (11730491_at) / RFU GIMAP4 (11747438_a_at) / Fold change /veh GIMAP4 (11747438_a_at) / RFU KRT8 (11758183_x_at) / Fold change /veh KRT8 (11758183_x_at) / RFU CNN1 (11734310_a_at) / Fold change /veh CNN1 (11734310_a_at) / RFU VPS37D (11726825_at) / Fold change /veh VPS37D (11726825_at) / RFU C10orf10 (11716522_x_at) / Fold change /veh C10orf10 (11716522_x_at) / RFU KIR2DL2 /// KIR2DL4 /// KIR2DL5A /// KIR2DL5B /// KIR2DS1 /// KIR2DS2 /// KIR2DS3 /// KIR2DS4 /// KIR3DL3 /// KIR3DL3 /// KIR3DS1 (11738374_at) / Fold change /veh KIR2DL2 /// KIR2DL4 /// KIR2DL5A /// KIR2DL5B /// KIR2DS1 /// KIR2DS2 /// KIR2DS3 /// KIR2DS4 /// KIR3DL3 /// KIR3DL3 /// KIR3DS1 (11738374_at) / RFU C1QL1 (11718748_at) / Fold change /veh C1QL1 (11718748_at) / RFU TMPRSS4 (11747572_a_at) / Fold change /veh TMPRSS4 (11747572_a_at) / RFU HAMP (11756126_x_at) / Fold change /veh HAMP (11756126_x_at) / RFU RNFT2 (11725882_a_at) / Fold change /veh RNFT2 (11725882_a_at) / RFU NR4A2 (11747474_a_at) / Fold change /veh NR4A2 (11747474_a_at) / RFU ABCC12 (11746883_a_at) / Fold change /veh ABCC12 (11746883_a_at) / RFU TMEM136 (11760407_x_at) / Fold change /veh TMEM136 (11760407_x_at) / RFU CLDN22 /// WWC2 (11732394_at) / Fold change /veh CLDN22 /// WWC2 (11732394_at) / RFU HLA-DPB1 (11760878_x_at) / Fold change /veh HLA-DPB1 (11760878_x_at) / RFU SPINT1 (11716480_a_at) / Fold change /veh SPINT1 (11716480_a_at) / RFU GAP43 (11754022_s_at) / Fold change /veh GAP43 (11754022_s_at) / RFU A4GNT (11735810_at) / Fold change /veh A4GNT (11735810_at) / RFU PRB3 (11715151_x_at) / Fold change /veh PRB3 (11715151_x_at) / RFU TUBB4B (11761932_at) / Fold change /veh TUBB4B (11761932_at) / RFU CAPN14 (11732068_a_at) / Fold change /veh CAPN14 (11732068_a_at) / RFU TMCC2 (11721928_a_at) / Fold change /veh TMCC2 (11721928_a_at) / RFU IRGQ (11745062_a_at) / Fold change /veh IRGQ (11745062_a_at) / RFU FAM174B (11720279_a_at) / Fold change /veh FAM174B (11720279_a_at) / RFU TMPRSS4 (11748680_a_at) / Fold change /veh TMPRSS4 (11748680_a_at) / RFU FAM212B (11763350_a_at) / Fold change /veh FAM212B (11763350_a_at) / RFU PLEKHG5 (11743358_a_at) / Fold change /veh PLEKHG5 (11743358_a_at) / RFU ZSCAN30 (11745921_a_at) / Fold change /veh ZSCAN30 (11745921_a_at) / RFU CMKLR1 (11741424_a_at) / Fold change /veh CMKLR1 (11741424_a_at) / RFU LOC101060620 /// MAPK8IP1 (11723275_at) / Fold change /veh LOC101060620 /// MAPK8IP1 (11723275_at) / RFU SPTSSB (11747773_x_at) / Fold change /veh SPTSSB (11747773_x_at) / RFU PRSS12 (11739890_at) / Fold change /veh PRSS12 (11739890_at) / RFU BIN1 (11741810_x_at) / Fold change /veh BIN1 (11741810_x_at) / RFU WNT11 (11732464_a_at) / Fold change /veh WNT11 (11732464_a_at) / RFU C10orf10 (11716521_a_at) / Fold change /veh C10orf10 (11716521_a_at) / RFU C5orf56 (11738089_at) / Fold change /veh C5orf56 (11738089_at) / RFU CYB561 (11721691_x_at) / Fold change /veh CYB561 (11721691_x_at) / RFU ANKRD19P (11752326_a_at) / Fold change /veh ANKRD19P (11752326_a_at) / RFU OR2T12 /// OR2T33 /// OR2T8 (11738714_s_at) / Fold change /veh OR2T12 /// OR2T33 /// OR2T8 (11738714_s_at) / RFU VCAN (11748164_a_at) / Fold change /veh VCAN (11748164_a_at) / RFU JSRP1 (11732532_at) / Fold change /veh JSRP1 (11732532_at) / RFU KRTAP10-11 (11738290_x_at) / Fold change /veh KRTAP10-11 (11738290_x_at) / RFU MYO3A (11730013_a_at) / Fold change /veh MYO3A (11730013_a_at) / RFU EBF3 (11725865_a_at) / Fold change /veh EBF3 (11725865_a_at) / RFU CAMK2N1 (11719241_x_at) / Fold change /veh CAMK2N1 (11719241_x_at) / RFU C5orf56 (11738088_a_at) / Fold change /veh C5orf56 (11738088_a_at) / RFU OLFML3 (11715873_a_at) / Fold change /veh OLFML3 (11715873_a_at) / RFU LOC100653217 /// NTM (11731650_a_at) / Fold change /veh LOC100653217 /// NTM (11731650_a_at) / RFU MAPK11 (11762145_a_at) / Fold change /veh MAPK11 (11762145_a_at) / RFU FIZ1 (11724087_x_at) / Fold change /veh FIZ1 (11724087_x_at) / RFU OASL (11726364_x_at) / Fold change /veh OASL (11726364_x_at) / RFU SOX15 (11748057_x_at) / Fold change /veh SOX15 (11748057_x_at) / RFU CD79A (11719716_a_at) / Fold change /veh CD79A (11719716_a_at) / RFU HIST1H1D (11736915_at) / Fold change /veh HIST1H1D (11736915_at) / RFU CASKIN2 (11723855_a_at) / Fold change /veh CASKIN2 (11723855_a_at) / RFU LOC730098 (11760151_x_at) / Fold change /veh LOC730098 (11760151_x_at) / RFU OR4N2 (11742367_at) / Fold change /veh OR4N2 (11742367_at) / RFU PRRT2 (11749266_a_at) / Fold change /veh PRRT2 (11749266_a_at) / RFU SNX32 (11753110_a_at) / Fold change /veh SNX32 (11753110_a_at) / RFU CDHR5 (11726645_a_at) / Fold change /veh CDHR5 (11726645_a_at) / RFU RCAN1 (11760418_a_at) / Fold change /veh RCAN1 (11760418_a_at) / RFU FAM167A (11723789_a_at) / Fold change /veh FAM167A (11723789_a_at) / RFU FAM26E (11764081_at) / Fold change /veh FAM26E (11764081_at) / RFU ISYNA1 (11749810_s_at) / Fold change /veh ISYNA1 (11749810_s_at) / RFU ACY1 (11761880_at) / Fold change /veh ACY1 (11761880_at) / RFU 11764098_at / Fold change /veh 11764098_at / RFU SAMD14 (11745864_x_at) / Fold change /veh SAMD14 (11745864_x_at) / RFU NPB (11741838_a_at) / Fold change /veh NPB (11741838_a_at) / RFU TMPRSS6 (11731388_a_at) / Fold change /veh TMPRSS6 (11731388_a_at) / RFU KRTAP10-2 (11738614_at) / Fold change /veh KRTAP10-2 (11738614_at) / RFU ARHGAP8 /// PRR5-ARHGAP8 (11727945_x_at) / Fold change /veh ARHGAP8 /// PRR5-ARHGAP8 (11727945_x_at) / RFU KRTAP5-7 /// NADSYN1 (11734609_at) / Fold change /veh KRTAP5-7 /// NADSYN1 (11734609_at) / RFU RASL12 (11751679_a_at) / Fold change /veh RASL12 (11751679_a_at) / RFU CDKN2B (11736163_a_at) / Fold change /veh CDKN2B (11736163_a_at) / RFU PRF1 (11729649_at) / Fold change /veh PRF1 (11729649_at) / RFU, ZNF638 /// ZNF638-IT1 / Fold change vs veh, ZNF638 /// ZNF638-IT1 / RFU, PANK3 / Fold change vs veh, PANK3 / RFU, SH3YL1 / Fold change vs veh, SH3YL1 / RFU, ZEB2 / Fold change vs veh, ZEB2 / RFU, NRIP1 / Fold change vs veh, NRIP1 / RFU, PTTG1IP / Fold change vs veh, PTTG1IP / RFU, CAPN2 / Fold change vs veh, CAPN2 / RFU, MED14 / Fold change vs veh, MED14 / RFU, SNORA58 / Fold change vs veh, SNORA58 / RFU, C1orf63 / Fold change vs veh, C1orf63 / RFU, LRRFIP1 / Fold change vs veh, LRRFIP1 / RFU, NDUFAF7 / Fold change vs veh, NDUFAF7 / RFU, SLC12A2 / Fold change vs veh, SLC12A2 / RFU, IBTK / Fold change vs veh, IBTK / RFU, ESF1 / Fold change vs veh, ESF1 / Fold change vs veh, TMEM50B / RFU, TAOK1 / Fold change vs veh, TAOK1 / RFU, ACBD3 / Fold change vs veh, ACBD3 / RFU, TMA16 / Fold change vs veh, TMA16 / RFU, RWDD3 / Fold change vs veh, RWDD3 / RFU, BCAT1 / Fold change vs veh, BCAT1 / RFU, EDEM3 / Fold change vs veh, EDEM3 / RFU, TMEM33 / Fold change vs veh, TMEM33 / RFU, WDR75 / Fold change vs veh, WDR75 / RFU, AHCTF1 / Fold change vs veh, AHCTF1 / RFU, TFRC / Fold change vs veh, TFRC / RFU, ZDHHC17 / Fold change vs veh, ZDHHC17 / RFU, NOM1 / Fold change vs veh, NOM1 / RFU, ARL8B / Fold change vs veh, ARL8B / RFU, ZBTB11 / Fold change vs veh, ZBTB11 / RFU, TAMM41 / Fold change vs veh, TAMM41 / RFU, KIAA1704 /// LOC100996395 / Fold change vs veh, KIAA1704 /// LOC100996395 / RFU, ING1 / Fold change vs veh, ING1 / RFU, TRMT61B / Fold change vs veh, TRMT61B / RFU, FUBP3 / Fold change vs veh, FUBP3 / RFU, TP53 / Fold change vs veh, TP53 / RFU, TNKS2 / Fold change vs veh, TNKS2 / RFU, ZFP14 / Fold change vs veh, ZFP14 / RFU, ACTR2 / Fold change vs veh, ACTR2 / RFU, PPP3R1 / Fold change vs veh, PPP3R1 / RFU, PIK3R1 / Fold change vs veh, PIK3R1 / RFU, HNRNPA1 / Fold change vs veh, HNRNPA1 / RFU, RNF170 / Fold change vs veh, RNF170 / RFU, ZNF28 / Fold change vs veh, ZNF28 / RFU, RNGTT / Fold change vs veh, RNGTT / RFU, OGT / Fold change vs veh, OGT / RFU, BRD1 / Fold change vs veh, BRD1 / RFU, MARS / Fold change vs veh, MARS / RFU, ZNF655 / Fold change vs veh, ZNF655 / RFU, FAHD1 / Fold change vs veh, FAHD1 / RFU, BDP1 / Fold change vs veh, BDP1 / RFU, LRRCC1 / Fold change vs veh, LRRCC1 / RFU, ARID1A / Fold change vs veh, ARID1A / RFU, ZNF146 / Fold change vs veh, ZNF146 / RFU, ZNF330 / Fold change vs veh, ZNF330 / RFU, GPN3 / Fold change vs veh, GPN3 / RFU, C9orf123 / Fold change vs veh, C9orf123 / RFU, N4BP2L2 / Fold change vs veh, N4BP2L2 / RFU, ARFIP1 / Fold change vs veh, ARFIP1 / RFU, FAM179B / Fold change vs veh, FAM179B / RFU, BCL10 / Fold change vs veh, BCL10 / RFU, UHRF1BP1L / Fold change vs veh, UHRF1BP1L / RFU, BET1 / Fold change vs veh, BET1 / RFU, CNOT2 / Fold change vs veh, CNOT2 / RFU, ZNF268 / Fold change vs veh, ZNF268 / Fold change vs veh, ZNF507 / RFU, DGCR2 / Fold change vs veh, DGCR2 / RFU, WDSUB1 / Fold change vs veh, WDSUB1 / Fold change vs veh, HSP90B1 /// MIR3652 / RFU, ADSS / Fold change vs veh, ADSS / RFU, GK / Fold change vs veh, GK / RFU, ZNF148 / Fold change vs veh, ZNF148 / RFU, TAF9 / Fold change vs veh, TAF9 / RFU, SLC1A5 / Fold change vs veh, SLC1A5 / RFU, SLMO2 / Fold change vs veh, SLMO2 / RFU, ABCC4 / Fold change vs veh, ABCC4 / RFU, LOC101060439 /// RAP1B / Fold change vs veh, LOC101060439 /// RAP1B / RFU, RFX7 / Fold change vs veh, RFX7 / RFU, GTPBP10 / Fold change vs veh, GTPBP10 / RFU, CNEP1R1 / Fold change vs veh, CNEP1R1 / RFU, BIVM-ERCC5 /// ERCC5 / Fold change vs veh, BIVM-ERCC5 /// ERCC5 / RFU, ILF3 / Fold change vs veh, ILF3 / RFU 11762660_at / Fold change /veh 11762660_at / RFU VCAN (11757783_s_at) / Fold change /veh VCAN (11757783_s_at) / RFU DDX43 (11728927_at) / Fold change /veh DDX43 (11728927_at) / RFU KRT8 (11758188_x_at) / Fold change /veh KRT8 (11758188_x_at) / RFU NKD1 (11759106_at) / Fold change /veh NKD1 (11759106_at) / RFU SRD5A1 (11742802_a_at) / Fold change /veh SRD5A1 (11742802_a_at) / RFU TPSAB1 /// TPSB2 (11721975_s_at) / Fold change /veh TPSAB1 /// TPSB2 (11721975_s_at) / RFU GSTM3 (11746129_a_at) / Fold change /veh GSTM3 (11746129_a_at) / RFU IL23R (11737362_x_at) / Fold change /veh IL23R (11737362_x_at) / RFU TMEM51 (11727254_a_at) / Fold change /veh TMEM51 (11727254_a_at) / RFU PIWIL2 (11732686_x_at) / Fold change /veh PIWIL2 (11732686_x_at) / RFU ORM1 (11744905_x_at) / Fold change /veh ORM1 (11744905_x_at) / RFU CCDC152 (11743942_at) / Fold change /veh CCDC152 (11743942_at) / RFU ECM1 (11717891_a_at) / Fold change /veh ECM1 (11717891_a_at) / RFU IL23R (11748794_a_at) / Fold change /veh IL23R (11748794_a_at) / RFU TNFAIP8L3 (11732012_x_at) / Fold change /veh TNFAIP8L3 (11732012_x_at) / RFU MBOAT4 (11741988_at) / Fold change /veh MBOAT4 (11741988_at) / RFU 11764193_at / Fold change /veh 11764193_at / RFU TMEM53 (11763286_at) / Fold change /veh TMEM53 (11763286_at) / RFU MAGEB2 (11727129_at) / Fold change /veh MAGEB2 (11727129_at) / RFU TMEM200A (11744735_a_at) / Fold change /veh TMEM200A (11744735_a_at) / RFU CCDC152 (11751479_a_at) / Fold change /veh CCDC152 (11751479_a_at) / RFU FAM211A (11726209_a_at) / Fold change /veh FAM211A (11726209_a_at) / RFU RGS16 (11746705_a_at) / Fold change /veh RGS16 (11746705_a_at) / RFU VCAN (11755009_s_at) / Fold change /veh VCAN (11755009_s_at) / RFU RHOB (11743442_s_at) / Fold change /veh RHOB (11743442_s_at) / RFU RGS16 (11720943_a_at) / Fold change /veh RGS16 (11720943_a_at) / RFU RGS16 (11720944_at) / Fold change /veh RGS16 (11720944_at) / RFU, VPS4B / Fold change vs veh, VPS4B / RFU, CREB1 / Fold change vs veh, CREB1 / RFU, DNAJC13 / Fold change vs veh, DNAJC13 / RFU, GNAQ / Fold change vs veh, GNAQ / RFU, CDK5R1 / Fold change vs veh, CDK5R1 / RFU, ZRANB3 / Fold change vs veh, ZRANB3 / RFU, CUL4A / Fold change vs veh, CUL4A / RFU, CCNY / Fold change vs veh, CCNY / RFU, UFL1 / Fold change vs veh, UFL1 / RFU, COG3 / Fold change vs veh, COG3 / RFU, DIAPH2 / Fold change vs veh, DIAPH2 / RFU, SKA2 / Fold change vs veh, SKA2 / RFU, AFF3 / Fold change vs veh, AFF3 / RFU, LMF1 / Fold change vs veh, LMF1 / RFU, IPO11 / Fold change vs veh, IPO11 / RFU, DFFB / Fold change vs veh, DFFB / RFU, FOXP1 / Fold change vs veh, FOXP1 / RFU, CARD8 / Fold change vs veh, CARD8 / RFU, STRN3 / Fold change vs veh, STRN3 / RFU, ADK / Fold change vs veh, ADK / RFU, RASSF2 / Fold change vs veh, RASSF2 / RFU, WIPF1 / Fold change vs veh, WIPF1 / RFU, LARP1B / Fold change vs veh, LARP1B / RFU, RASA1 / Fold change vs veh, RASA1 / RFU, RB1 / Fold change vs veh, RB1 / RFU, PPFIA1 / Fold change vs veh, PPFIA1 / RFU, MAT2A / Fold change vs veh, MAT2A / RFU, CCT5 / Fold change vs veh, CCT5 / RFU, WDR92 / Fold change vs veh, WDR92 / RFU, CUX1 / Fold change vs veh, CUX1 / RFU, TTC7A / Fold change vs veh, TTC7A / RFU, TMEM135 / Fold change vs veh, TMEM135 / RFU, DEPTOR / Fold change vs veh, DEPTOR / RFU, CPM / Fold change vs veh, CPM / RFU, DNAJB6 / Fold change vs veh, DNAJB6 / RFU, CACNA2D3 / Fold change vs veh, CACNA2D3 / RFU, DTX4 / Fold change vs veh, DTX4 / RFU, TFCP2 / Fold change vs veh, TFCP2 / RFU, GMCL1 /// GMCL1P1 / Fold change vs veh, GMCL1 /// GMCL1P1 / RFU, AEBP2 / Fold change vs veh, AEBP2 / RFU, SNHG1 /// SNORD22 /// SNORD25 /// SNORD26 /// SNORD27 /// SNORD28 /// SNORD29 /// SNORD31 / Fold change vs veh, SNHG1 /// SNORD22 /// SNORD25 /// SNORD26 /// SNORD27 /// SNORD28 /// SNORD29 /// SNORD31 / Fold change (Aza/veh), C12orf56 (ProbeSet 11735607_a_at) / Fold change (ACY-1035/veh), C12orf56 (ProbeSet 11735607_a_at) / Fold change (Aza/veh), FGFR1OP (ProbeSet 11751329_s_at) / Fold change (ACY-1035/veh), FGFR1OP (ProbeSet 11751329_s_at) / Fold change (Aza/veh), VPS36 (ProbeSet 11739960_a_at) / Fold change (ACY-1035/veh), VPS36 (ProbeSet 11739960_a_at) / RFU SYPL1 (11715823_x_at) / Fold change /veh SYPL1 (11715823_x_at) / RFU IGFBP7 (11715501_s_at) / Fold change /veh IGFBP7 (11715501_s_at) / RFU REEP3 (11722064_at) / Fold change /veh REEP3 (11722064_at) / RFU IGLL1 (11728026_x_at) / Fold change /veh IGLL1 (11728026_x_at): dose or concentration left out as unconfirmed
Conditions: ProbeSet 11720566_at; LIST D

Nc1ncn([C@@H]2O[C@H](CO)[C@@H](O)[C@H]2O)c(=O)n1 [azacitidine]
Fold change vs veh, BCAT1: 0.67
